Patent publication US8853234B2, “Quinolone analogs and methods related thereto” (Senhwa Biosciences, Inc., priority 2007, dated 2014)

Assays:
[1] = Cassette dosing oral pharmacokinetics in ICR mice; format: in vivo; conditions: ICR (IcrTac:ICR), mouse; cassette oral dose 25 mg/kg, female ICR mice, plasma, 0-8 h, none in table
Procedure: A cassette dosing procedure was utilized to determine pharmaceutical properties of compounds disclosed herein. In this procedure, compounds are selected for each cassette (i.e., cocktail) on the basis that mass spectrometric signals for each compound will not interfere with one another upon mass spectrometric analysis (e.g., will not overlap). The concentration of each compound in the dosing cassette often is about 20 mg/mL to achieve an oral dose level of 25 mg/kg in ICR mice. Aspects of the cassette dosing procedure are described hereafter.
Prepare 0.5 mL of 20 mg/mL dosing solution (in PBS or formulation vehicle) of 12 test compounds. Dilute a dosing solution 20 fold by transferring 10 μL of the stock solution into 190 μL acetonitrile containing 0.1% formic acid to achieve a final concentration of 1 mg/mL. Dilute further a 1 mg/mL solution 1,000 fold by transferring 1 μL of the stock solution into 999 μL acetonitrile containing 0.1% formic acid to achieve a final concentration of 1 μg/mL. Use the 1 μg/mL solution for mass spectrometric method development based on direct infusion. Determine parent/daughter mass spectra of each compound using multiple reaction monitoring (MRM). Compare parent/daughter mass spectra of each compound to assure no cross-reaction interference during LC-MS/MS measurements. Based on MRM mass spectra determine the composition of all cassettes.
Mix 250 μL of four prepared dosing solutions and an oral PK internal standard (20 mg/mL each) according to cassette design to achieve a final concentration of 4 mg/mL. Vortex cassettes rigorously and ultra-sonicate to obtain a clear solution or homogeneous suspension. Use the cassette solutions to dose animals by oral route of administration at 25 mg/kg.
All in vivo experiments follow protocols approved by the Animal Use and Care Committee. Female ICR mice (IcrTac:ICR), 8-10 weeks of age are obtained from Taconic (Hudson, N.Y.). Mice are housed on a 12 h/12 h light/dark cycle with ad libitum access to water and food. After a minimum two week acclimation period, the mice are randomized into groups with a minimum group size of four. The animals used for pharmacokinetic studies have a body-weight range of 25-35 g. A 25 mg/kg (4 mg/ml) dose of a cassette described in Example 1 is orally administered to mice that have been fasted overnight.
After compound administration, serial blood samples are collected via retro-orbital puncture with a capillary tube at various time points (15, 30 minutes and 1, 2, 4, 6 and 8 hours). The samples are transferred to a heparinized 0.5 mL microcentrifuge tube and placed on ice. Plasma is separated by centrifugation and samples are stored at −80° C. until assay.
Dilute a cassette dosing solution (4 mg/mL) four fold by transferring 25 μL of the stock solution into 75 μL of 50% acetonitrile containing 0.1% formic acid to achieve the concentration of 1 mg/mL. Dilute this stock solution further by serial dilutions to make 0.01, 0.1, 1 and 5 μg/mL working standard solutions.
Prepare 500 mL of 0.5 μg/mL solution of bioanalytical internal standard using 100% acetonitrile with 0.1% formic acid. Store the quenching solution in a tightly sealed bottle at 4° C.
Transfer 15 μL of blank mouse plasma to a 96 well plate and precipitate plasma proteins by pipetting of 120 μL of quenching solution to all plasma aliquots. Cover the plate with a matching plate mat and mix well for 30-60 seconds using a vertical multi-tube shaker.
Add 15 μL of the working standard solution of corresponding cassette to quenched plasma and vortex the plate for an additional 30-60 seconds. Then, centrifuge the plate at 4,000 rpm for 10 minutes at 4° C. Without disturbing the plasma protein pellet, transfer 120 μL of the supernatant to a new 96 well plate and dry the sample under nitrogen using a TurboVap® plate evaporator (Caliper Life Sciences; Hopkinton, Mass.). Reconstitute dried residues with 120 μL 20% acetonitrile containing 0.1% formic acid. […]

[2] = Pharmacokinetic evaluation IV bolus and oral (bioavailability) in ICR mice; format: in vivo; conditions: mouse, plasma, IV 5 mg/kg and PO 25 mg/kg, read-out: Bioavailability (% F)
Procedure: The pharmacokinetics properties of drugs are investigated in ICR mice following an intravenous (IV) bolus and oral (PO) doses of drug at 5 mg/kg and 25 mg/kg respectively. Blood samples are collected at predetermined times and the plasma separated. Plasma is separated from the blood samples collected at 5, 15 and 30 minutes and 1, 2, 4, 8 and 24 hours post-dose.
Drug levels are quantified by the LC/MS/MS method described below. Noncompartmental pharmacokinetic analysis is applied for intravenous administration. A linear trapezoidal rule is used to compute AUC(0-24) or AUC(0-8). The terminal t1/2 and C0 are calculated using the last three and the first three data points, respectively
Bioanalysis is performed using a Quattro Micro LC/MS/MS instrument in the MRM detection mode, with an internal standard (IS). Briefly, 15 μL plasma samples are prepared for analysis using protein precipitation with 120 μL of acetonitrile. The supernatants are transferred into a 96 well plate and subjected to LC-MS/MS analysis using a PHENOMENEX® Polar-RP HPLC column. The mobile phases are 10 mM NH4HCO3 in water (Solution-A) and 10 mM NH4HCO3 in methanol (Solution-B). The column is initially equilibrated with 25% Solution-B and followed with 100% Solution B over 5 minutes. The method has a dynamic range from 1 to 10,000 ng/mL. Quantitation of the analytes is performed in the batch mode with two bracketing calibration curves according to the bioanalytical sample list.

SMILES | AUC(0-t) [1] [ng·h/mL] | bioavailability [2] [%]
Cn1c2ccccc2n2c3nc(N4CCOCC4)c(F)cc3c(=O)c(C(=O)NCCN3CCCC3)c12 | 2000 | 
O=C(NCCN1CC=CC1)c1c(=O)c2ccc(N3CCOCC3)nc2n2c1sc1ccccc12 | 7940 | 27.5
CN1CCC(N(C)C(=O)c2c(=O)c3cc(F)c(N4CCOCC4)nc3n3c2sc2ccccc23)C1 (centres unmarked) | 2130 | 
O=C(NCC1CCCN1)c1c(=O)c2cc(F)c(N3CCOCC3)nc2n2c1sc1ccccc12 (centres unmarked) | 1050 | 
O=C(NCCNCCF)c1c(=O)c2ccc(N3CCOCC3)nc2n2c1sc1ccccc12 | 5020 | 
Cn1c2ccccc2n2c3nc(N4CCOCC4)ccc3c(=O)c(C(=O)NCCN3CCCC3)c12 | 1260 | 
O=C(c1c(=O)c2ccc(N3CCOCC3)nc2n2c1sc1ccccc12)N1CCN(c2ncccn2)CC1 | 15300 | 31.1
O=C(NCCn1ccnc1)c1c(=O)c2ccc(N3CCOCC3)nc2n2c1sc1ccccc12 | 4030 | 
O=C(NCCN1CC=CC1)c1c(=O)c2cc(F)c(N3CCOCC3)nc2n2c1sc1ccccc12 | 2000 | 
O=C(NCCNC1CC1)c1c(=O)c2ccc(N3CCOCC3)nc2n2c1sc1ccccc12 [drawing 604] | 5370 | 43.3
CN1CCCC1CCNC(=O)c1cn2c3c(c(N4CCOCC4)c(F)cc3c1=O)Oc1ccccc1-2 (centres unmarked) | 1430 | 
CN1CCN(c2ccc3c(=O)c(C(=O)NC4CC4)c4n(C)c5ccccc5n4c3n2)CC1 | 5200 | 
CN1CCCC1CCNC(=O)c1c(=O)c2ccc(N3CCOCC3)nc2n2c1sc1ccccc12 (centres unmarked) | 2590 | 
Cn1c2ccccc2n2c3nc(N4CCOCC4)c(F)cc3c(=O)c(C(=O)N3CCN4CCCC4C3)c12 (centres unmarked) | 3210 | 
Cc1cnc(CNC(=O)c2c(=O)c3ccc(N4CCN(C)CC4)nc3n3c2sc2ccccc23)cn1 [drawing 619] | 166000 | 
O=C(NCCN1CC=CCC1)c1c(=O)c2ccc(N3CCOCC3)nc2n2c1sc1ccccc12 | 632 | 
CN1CCCC(NC(=O)c2c(=O)c3cc(F)c(N4CCOCC4)nc3n3c2sc2ccccc23)C1 (centres unmarked) | 1030 | 
CN1CCCC1CCNC(=O)c1c(=O)c2cc(F)c(N3CCOCC3)nc2n2c3ccccc3n(C)c12 (centres unmarked) | 1190 | 10.4
O=C(c1c(=O)c2ccc(N3CCOCC3)nc2n2c1sc1ccccc12)N1CCN(c2ccccn2)CC1 | 1740 | 
Cn1cncc1CNC(=O)c1c(=O)c2ccc(N3CCOCC3)nc2n2c1sc1ccccc12 | 2920 | 12.4
CN1CCCCC1CNc1ccc2c(=O)c(C(=O)NCc3ccncc3)c3sc4ccccc4n3c2n1 (centres unmarked) | 790 | 
CN1CCN(c2nc3c(cc2F)c(=O)c(C(=O)NCc2cn(C)cn2)c2sc4ccccc4n23)CC1 | 45100 | 

SMILES | AUC(0-t) [1] [ng·h/mL] | bioavailability [2] [%]
O=C(NCCNCC1CCCO1)c1c(=O)c2ccc(N3CCOCC3)nc2n2c1sc1ccccc12 (centres unmarked) | 1900 | 2
O=C(NCCN1CCCC1)c1c(=O)c2ccc(N3CCOCC3)nc2n2c1sc1ccccc12 | 2150 | 10.7
CN1CCCC1CNC(=O)c1c(=O)c2cc(F)c(N3CCOCC3)nc2n2c1sc1ccccc12 (centres unmarked) | 3960 | 
Cn1ccnc1CNC(=O)c1c(=O)c2cc(F)c(N3CCOCC3)nc2n2c1sc1ccccc12 | 20300 | 15.8
O=C(NCCNC1CCC1)c1c(=O)c2ccc(N3CCOCC3)nc2n2c1sc1ccccc12 | 3180 | 
Cn1ccnc1CNC(=O)c1c(=O)c2ccc(N3CCOCC3)nc2n2c1sc1ccccc12 | 5490 | 17.9
O=C(NCCN1CCCC1)c1c(=O)c2cc(F)c(N3CCOCC3)nc2n2c1sc1ccccc12 | 2260 | 
CN1CCCC1CCNC(=O)c1c(=O)c2cc(F)c(N3CCOCC3)nc2n2c1sc1ccccc12 (centres unmarked) | 3810 | 22.4
O=C(NCCN1CCC(O)C1)c1c(=O)c2cc(F)c(N3CCOCC3)nc2n2c1sc1ccccc12 (centres unmarked) | 1090 | 
O=C(NCCN1CCOCC1)c1c(=O)c2ccc(N3CCOCC3)nc2n2c1sc1ccccc12 | 2980 | 
CN1CCCN(C(=O)c2c(=O)c3cc(F)c(N4CCOCC4)nc3n3c2sc2ccccc23)CC1 | 4230 | 
CN1CCN(C(=O)c2c(=O)c3cc(F)c(N4CCOCC4)nc3n3c2sc2ccccc23)CC1 | 6160 | 30.3
O=C(NCCNC1CC1)c1c(=O)c2cc(F)c(N3CCOCC3)nc2n2c1sc1ccccc12 | 5150 | 
O=C(NCCN1CC=CC1)c1cn2c3c(c(N4CCC(c5cnccn5)C4)c(F)cc3c1=O)Oc1cc3ccccc3cc1-2 (centres unmarked) | 8040 | 
Cc1nccn1CCNC(=O)c1c(=O)c2ccc(N3CCOCC3)nc2n2c1sc1ccccc12 | 4380 | 
CN1CCCCC1CNC(=O)c1c(=O)c2ccc(N3CCOCC3)nc2n2c1sc1ccccc12 (centres unmarked) | 1050 | 
O=C(NCCNCCF)c1c(=O)c2cc(F)c(N3CCOCC3)nc2n2c1sc1ccccc12 | 2220 | 
Cn1ccnc1CNC(=O)c1c(=O)c2cc(N3CCOCC3)nnc2n2c1sc1ccccc12 | 3780 | 
O=C(NCCNCC(F)(F)F)c1c(=O)c2ccc(N3CCOCC3)nc2n2c1sc1ccccc12 | 9450 | 
O=C(NNC1=NCCN1)c1c(=O)c2cc(F)c(N3CCOCC3)nc2n2c1sc1ccccc12 | 2430 | 0.1
CN1CCN(c2ccc3c(=O)c(C(=O)NCc4ccccn4)c4sc5ccccc5n4c3n2)CC1 | 51100 | 41.4
